# Reference: US9249125B2, “Pyrazole derivatives as p38 MAP inhibitors” (RESPIVERT LIMITED, priority 2012, dated 2016)
# Legend:
# [1] = tested on: LPS-induced TNFα release in d-U937 cells; assay: LPS-induced TNFα release in d-U937 cells; assay type: cell-based; settings: Homo sapiens, dU937, relative to 10 μg/mL BIRB796, read-out: LPS Induced Release of Cytokine in d-937 Cells TNFα REC50
# Experimental: (§1) U937 cells, a human monocytic cell line, are differentiated into macrophage-type cells by incubation with PMA (100 ng/mL) for 48 to 72 hr. Cells are pre-incubated with final concentrations of test compound for 2 hr and are then stimulated with LPS (0.1 μg/mL) (from E. coli: O111:B4, Sigma) for 4 hr. The supernatant is collected for determination of TNFα and IL-8 concentrations by sandwich ELISA (Duo-set, R&D systems). […] The relative 50% effective concentration (REC50) is determined from the resultant concentration-response curve. The inhibition of IL-8 production is calculated at each concentration of test compound by comparison with vehicle control. […] (b) LPS-Induced TNFα/IL-8 Release in PBMC Cells
# [2] = target: cSrc (Homo sapiens (Human), UniProt P12931); assay: c-Src enzyme inhibition (FRET, Z-LYTE); assay type: biochemical
# Sequence of cSrc (P12931 whole entry, looked up): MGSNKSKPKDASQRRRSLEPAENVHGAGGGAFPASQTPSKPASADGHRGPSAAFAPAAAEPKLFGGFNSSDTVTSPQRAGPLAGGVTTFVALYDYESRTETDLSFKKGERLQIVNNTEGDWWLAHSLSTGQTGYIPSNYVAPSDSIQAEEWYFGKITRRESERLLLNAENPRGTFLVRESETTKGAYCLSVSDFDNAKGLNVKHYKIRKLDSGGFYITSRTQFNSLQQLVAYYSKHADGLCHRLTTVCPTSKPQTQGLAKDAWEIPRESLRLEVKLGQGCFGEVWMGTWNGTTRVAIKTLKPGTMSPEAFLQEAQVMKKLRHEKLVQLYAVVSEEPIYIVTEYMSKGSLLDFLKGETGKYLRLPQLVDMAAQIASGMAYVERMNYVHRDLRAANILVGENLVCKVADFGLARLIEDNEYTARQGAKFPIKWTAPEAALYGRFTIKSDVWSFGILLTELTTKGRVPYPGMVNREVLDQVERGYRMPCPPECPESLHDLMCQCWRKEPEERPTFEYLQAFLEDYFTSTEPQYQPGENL
# Experimental: (§2) The enzyme inhibitory activities of compounds disclosed herein are determined by FRET using synthetic peptides labelled with both donor and acceptor fluorophores (Z-LYTE, Invitrogen Ltd., Paisley, UK).
# (§3) The relevant enzyme (3000 ng/mL or 2000 ng/mL respectively, 2.5 μL) is incubated with the test compound (either 4 μg/mL, 0.4 μg/mL, 0.04 μg/mL, or 0.004 μg/mL, 2.5 μL each) for 2 hr at RT. The FRET peptides (8 μM, 2.5 μL), and appropriate ATP solutions (2.5 μL, 800 μM for c-Src, and 60 μM ATP for Syk) are then added to the enzymes/compound mixtures and incubated for 1 hr. Development reagent (protease, 5 μL) is added for 1 hr prior to detection in a fluorescence microplate reader (Varioskan® Flash, ThermoFisher Scientific).
# (§4) In all cases, the site-specific protease cleaves non-phosphorylated peptide only and eliminates the FRET signal. Phosphorylation levels of each reaction are calculated using the ratio of coumarin emission (donor) over fluorescein emission (acceptor), for which low ratios indicate high phosphorylation and high ratios indicate low phosphorylation levels.
# [3] = target: Syk (Homo sapiens (Human), UniProt P43405); assay: Syk enzyme inhibition (FRET, Z-LYTE); assay type: biochemical
# Experimental: as §2, §3, §4
# [4] = target: p38 MAPKα (Homo sapiens (Human), UniProt Q16539); assay: p38 MAPKα enzyme inhibition (FRET, Z-LYTE); assay type: biochemical
# Sequence of p38 MAPKα (Q16539 whole entry): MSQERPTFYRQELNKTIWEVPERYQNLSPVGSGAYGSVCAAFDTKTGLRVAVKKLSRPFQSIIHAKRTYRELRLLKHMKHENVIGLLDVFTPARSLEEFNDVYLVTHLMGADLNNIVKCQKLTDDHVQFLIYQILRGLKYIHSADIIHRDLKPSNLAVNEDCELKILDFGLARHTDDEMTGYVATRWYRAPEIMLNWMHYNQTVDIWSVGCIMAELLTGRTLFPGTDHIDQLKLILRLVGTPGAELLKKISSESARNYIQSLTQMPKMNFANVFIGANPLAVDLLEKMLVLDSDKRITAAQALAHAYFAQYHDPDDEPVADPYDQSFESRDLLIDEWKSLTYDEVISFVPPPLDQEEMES
# Experimental: as §2
# The inhibitory activities of test compounds against the p38 MAPKα isoform (MAPK14: Invitrogen), are evaluated indirectly by determining the level of activation/phosphorylation of the down-stream molecule, MAPKAP-K2. The p38 MAPKα protein (80 ng/mL, 2.5 μL) is mixed with the test compound (2.5 μL of either 4 μg/mL, 0.4 μg/mL, 0.04 μg/mL or 0.004 μg/mL) for 2 hr at RT. […] The mixture is incubated for 1 hr at RT. Development reagent (protease, 5 μL) is added for 1 hr prior to detection in a fluorescence microplate reader (Varioskan® Flash, ThermoFisher Scientific).
# as §4
# [5] = tested on: d-U937 cells; assay: Cell viability: MTT assay; assay type: cell-based, human; settings: 1 μg/mL
# Experimental: Differentiated U937 cells are pre-incubated with each test compound (final concentration 1 μg/mL or 10 μg/mL in 200 μL media indicated below) under two protocols: the first for 4 hr in 5% FCS RPMI1640 media and the second in 10% FCS RPMI1640 media for 24 h. The supernatant is replaced with new media (200 μL) and MTT stock solution (10 μL, 5 mg/mL) is added to each well. After incubation for 1 hr the media are removed, DMSO (200 μL) is added to each well and the plates are shaken lightly for 1 hr prior to reading the absorbance at 550 nm. The percentage loss of cell viability is calculated for each well relative to vehicle (0.5% DMSO) treatment. Consequently an apparent increase in cell viability for drug treatment relative to vehicle is tabulated as a negative percentage.
# [6] = tested on: Poly I:C-induced ICAM-1 expression in BEAS2B cells; assay: Poly I:C-induced ICAM-1 expression in BEAS2B cells; assay type: cell-based; settings: Homo sapiens, BEAS-2B, read-out: Poly IC induced ICAM1 in BEAS2B IC50
# Experimental: Poly I:C is used in these studies as a simple, RNA virus mimic. Poly I:C-Oligofectamine mixture (1 μg/mL Poly I:C, ±2% Oligofectamine, 25 uL) (Invivogen Ltd., San Diego, Calif., and Invitrogen, Carlsbad, Calif., respectively) is transfected into BEAS2B cells (human bronchial epithelial cells, ATCC). Cells are pre-incubated with final concentrations of test compounds for 2 hr and the level of ICAM1 expression on the cell surface is determined by cell-based ELISA. At a time point 18 hr after poly I:C transfection, cells are fixed with 4% formaldehyde in PBS (100 μL) and then endogenous peroxidase is quenched by the addition of washing buffer (100 μL, 0.05% Tween in PBS: PBS-Tween) containing 0.1% sodium azide and 1% hydrogen peroxide. Cells are washed with wash-buffer (3×200 μL). and after blocking the wells with 5% milk in PBS-Tween (100 μL) for 1 hr, the cells are incubated with anti-human ICAM-1 antibody (50 μL) (Cell Signaling Technology, Danvers, Mass.) in 1% BSA PBS overnight at 4° C.
# The cells are washed with PBS-Tween (3×200 μL) and incubated with the secondary antibody (100 μL) (HRP-conjugated anti-rabbit IgG, Dako Ltd., Glostrup, Denmark). The cells are then incubated with of substrate (50 μL) for 2-20 min, followed by the addition of stop solution (50 μL, 1N H2SO4). The ICAM-1 signal is detected by reading and reading the absorbance at 450 nm against a reference wavelength of 655 nm using a spectrophotometer. The cells are then washed with PBS-Tween (3×200 μL) and total cell numbers in each well are determined by reading absorbance at 595 nm after Crystal Violet staining (50 μL of a 2% solution in PBS) and elution by 1% SDS solution (100 μL) in distilled water. The measured OD 450-655 readings are corrected for cell number by dividing with the OD595 reading in each well.
# [7] = tested on: LPS-induced IL-8 release in d-U937 cells; assay: LPS-induced IL-8 release in d-U937 cells; assay type: cell-based; settings: Homo sapiens, dU937, read-out: LPS Induced Release of Cytokine in d-937 Cells IL-8 IC50
# Experimental: as §1
# [8] = target: GSK3α (Homo sapiens (Human), UniProt P49840); assay: GSK 3α enzyme inhibition (FRET, Z-LYTE); assay type: biochemical
# Sequence of GSK3α (P49840 whole entry): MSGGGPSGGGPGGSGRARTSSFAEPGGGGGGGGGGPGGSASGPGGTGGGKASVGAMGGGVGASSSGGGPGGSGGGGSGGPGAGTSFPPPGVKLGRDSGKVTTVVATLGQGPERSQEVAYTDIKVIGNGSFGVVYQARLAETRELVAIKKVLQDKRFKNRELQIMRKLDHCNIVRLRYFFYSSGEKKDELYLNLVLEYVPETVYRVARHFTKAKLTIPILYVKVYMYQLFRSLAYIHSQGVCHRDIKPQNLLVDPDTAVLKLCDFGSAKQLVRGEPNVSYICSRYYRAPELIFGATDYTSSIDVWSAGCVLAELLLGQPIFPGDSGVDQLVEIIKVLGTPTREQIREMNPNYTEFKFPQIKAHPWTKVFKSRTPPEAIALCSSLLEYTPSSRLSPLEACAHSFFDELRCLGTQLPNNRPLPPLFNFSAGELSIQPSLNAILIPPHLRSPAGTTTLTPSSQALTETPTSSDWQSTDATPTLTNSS
# Experimental: as §2
# The inhibitory activities of compounds of the invention against the GSK 3α enzyme isoform (Invitrogen), are evaluated by determining the level of activation/phosphorylation of the target peptide. The GSK3-α protein (500 ng/mL, 2.5 μL) is mixed with the test compound (2.5 μL at either 4 μg/mL, 0.4 μg/mL, 0.04 μg/mL, or 0.004 μg/mL) for 2 hr at RT. The FRET peptide (8 μM, 2.5 μL), which is a phosphorylation target for GSK3α, and ATP (40 μM, 2.5 μL) are then added to the enzyme/compound mixture and the resulting mixture incubated for 1 hr. Development reagent (protease, 5 μL) is added for 1 hr prior to detection in a fluorescence microplate reader (Varioskan® Flash, ThermoFisher Scientific).
# as §4
SMILES,EC50 [1],IC50 [2],IC50 [3],IC50 [4],IC50 [7],IC50 [8],MTT Assay Cell viability at time point in d-U937 cells 4 h [5],MTT Assay Cell viability at time point in d-U937 cells 24 h [5],IC50 [6]
"Cc1cc(Nc2nccc(Oc3ccc(NC(=O)Nc4cc(C(C)(C)C)nn4-c4cccc(CN5CCCC5=O)c4)c4ccccc34)n2)cc2cn[nH]c12 [Example 10, 1-(3-(tert-Butyl)-1-(3-((2-oxopyrrolidin-1-yl)methyl)phenyl)-1H-pyrazol-5-yl)-3-(4-((2-((7-methyl-1H-indazol-5-yl)amino)pyrimidin-4-yl)oxy)naphthalen-1-yl)urea]",1.4 nM,< 1 nM,2 nM,18 nM,1.2 nM,589 nM,"−ve (−ve and +ve indicate that the value is below and above respectively, the no significant effect threshold, defined as 30% inhibition at 1 μg/mL at the time point indicated.)","−ve (−ve and +ve indicate that the value is below and above respectively, the no significant effect threshold, defined as 30% inhibition at 1 μg/mL at the time point indicated.)",3.9 nM
"CC(C)(C)c1cc(NC(=O)Nc2ccc(Oc3ccnc(Nc4ccc5c(c4)OCCO5)n3)c3ccccc23)n(-c2ccc(OCCN3CCOCC3)cc2)n1 [Example 11, 1-(3-(tert-Butyl)-1-(4-(2-morpholinoethoxy)phenyl)-1H-pyrazol-5-yl)-3-(4-((2-((2,3-dihydrobenzo[b][1,4]dioxin-6-yl)amino)pyrimidin-4-yl)oxy)naphthalen-1-yl)urea]",8.5 nM,6 nM,15 nM,39 nM,25.2 nM,848 nM,"−ve (−ve and +ve indicate that the value is below and above respectively, the no significant effect threshold, defined as 30% inhibition at 1 μg/mL at the time point indicated.)","−ve (−ve and +ve indicate that the value is below and above respectively, the no significant effect threshold, defined as 30% inhibition at 1 μg/mL at the time point indicated.)",7.9 nM
"CC(C)(C)c1cc(NC(=O)Nc2ccc(Oc3cc(Nc4ccc5[nH]ncc5c4)ncn3)c3ccccc23)n(-c2ccc(=O)n(CCO)c2)n1 [Example 14, 1-(4-((6-((1H-Indazol-5-yl)amino)pyrimidin-4-yl)oxy)naphthalen-1-yl)-3-(3-(tert-butyl)-1-(1-(2-hydroxyethyl)-6-oxo-1,6-dihydropyridin-3-yl)-1H-pyrazol-5-yl)urea]",7.5 nM,2 nM,7 nM,3 nM,18.4 nM,1090 nM,"−ve (−ve and +ve indicate that the value is below and above respectively, the no significant effect threshold, defined as 30% inhibition at 1 μg/mL at the time point indicated.)","−ve (−ve and +ve indicate that the value is below and above respectively, the no significant effect threshold, defined as 30% inhibition at 1 μg/mL at the time point indicated.)",52.4 nM

# More lines, main results first:
EC50 [1],IC50 [2],IC50 [3],IC50 [4],IC50 [7],IC50 [8],SMILES,MTT Assay Cell viability at time point in d-U937 cells 4 h [5],MTT Assay Cell viability at time point in d-U937 cells 24 h [5],IC50 [6]
2 nM,22 nM,65 nM,101 nM,2.6 nM,> 16100 nM,Cc1ccc(-n2nc(C(C)(C)C)cc2NC(=O)Nc2ccc(Oc3ccnc(Nc4cccc5[nH]ccc45)n3)c3ccccc23)cc1 [Example 16],"−ve (−ve and +ve indicate that the value is below and above respectively, the no significant effect threshold, defined as 30% inhibition at 1 μg/mL at the time point indicated.)","−ve (−ve and +ve indicate that the value is below and above respectively, the no significant effect threshold, defined as 30% inhibition at 1 μg/mL at the time point indicated.)",8.9 nM
1.8 nM,7 nM,32 nM,12 nM,1.9 nM,1010 nM,"Cc1ccc(-n2nc(C(C)(C)C)cc2NC(=O)Nc2ccc(Oc3ccnc(Nc4ccc5c(c4)CC(=O)N5)n3)c3ccccc23)cc1 [Example 19, 1-(3-(tert-butyl)-1-(p-tolyl)-1H-pyrazol-5-yl)-3-(4-((2-((2-oxoindolin-5-yl)amino)pyrimidin-4-yl)oxy)naphthalen-1-yl)urea]","−ve (−ve and +ve indicate that the value is below and above respectively, the no significant effect threshold, defined as 30% inhibition at 1 μg/mL at the time point indicated.)","−ve (−ve and +ve indicate that the value is below and above respectively, the no significant effect threshold, defined as 30% inhibition at 1 μg/mL at the time point indicated.)",2.4 nM
